Laboratory results published in patent US20260240940A1, “REGULATING DISEASE OR DISORDER CHARACTERIZED BY ESOPHAGEAL EPITHELIAL PROLIFERATION THROUGH SECRETED FRIZZLED-RELATED PROTEIN 1 (SFRP1)” (The Regents of the University of Michigan, priority 2023, published 2026).

How the values were obtained:
[1] = test system: EPC2-ALI cells; assay: Quantification of Ki67-positive EPC2-ALI cells; assay type: cell-based, human; details: for Ki67+ EPC2-ALI cells under IL-13-stimulation: compared to IL-13 alone; for Ki67+ EPC2-ALI cells, treatment alone: without IL-13, compared to steady-state (Vehicle)
Experimental: (§1) EPC2-ALI culture—hTERT immortalized human esophageal epithelial keratinocytes (hTERT-EPC2) were cultured under air-liquid-interface conditions as described 9, 41. In brief, EPC2-hTERT cells were seeded onto permeable (0.4 μm) transwell support (Corning Incorporated, Corning, NY, USA) and grown to confluence while fully submerged in low-calcium ([Ca2+]=0.09 mM) keratinocyte serum-free media (K-SFM) (Life Technologies; Carlsbad, CA). Epithelial differentiation was induced by culturing submerged cell monolayers in high-calcium K-SFM ([Ca2+]=1.8 mM) for 4 days (day 3 to 7). Cells were then exposed for 5 days (day 7 to 12) at ALI by removing cell media from the top chamber, to induce stratification.
Quantification of Ki67-positive EPC2-ALI cells—EPC2-ALI cells were cultured in the presence or absence of their respective stimulations for 48 hours. For immunofluorescence (IF) staining, formalin- or paraformaldehyde-fixed, paraffin-embedded transwell sections were sectioned, mounted on slides, and deparaffinized by using standard histologic procedures. Slides were then permeabilized in Tris-EDTA (1 mmol/L, pH 9.0) with 0.1% Tween-20, and antigen exposure was performed at 125° C. for 30 seconds in a decloaking chamber by using a pressure cooker. Slides were then blocked by 10% normal donkey serum for 1 hour, followed by overnight incubation of primary antibodies diluted in 10% normal donkey serum at a final concentration of 1 μg/mL: anti-Ki67 (1:1000; clone: SolA15; Invitrogen), slides were then washed and incubated with secondary antibody at RT for 1 hour. Slides were mounted with 4′-6-diamidino-2-phenylindole dihydrochloride Fluoromount-G (SouthernBiotech, Birmingham, Ala) mounting solution. Fluorescent imaging was performed with the Zeiss Apotome fluorescent microscope (Carl Zeiss Meditec, Dublin, Calif) using Nikon Elements software. Ki67+ cells were quantified as the number of Ki67+-labeled cells per total linear length of filter-attached EPC2-ALI cells using FIJI ImageJ. Three filters per condition from 3 individual experiments were quantitated.

[2] = biological target: T1, STAT3 (Homo sapiens, UniProt P40763); assay: Western blot of EPC2-ALI for total and phosphorylated STAT3; assay type: cell-based; details: SD-36 10 uM
T1 construct: endogenous in cells; host or cells: hTERT-EPC2 human esophageal epithelial keratinocytes at air-liquid interface (EPC2-ALI)
T1 sequence (P40763 whole entry): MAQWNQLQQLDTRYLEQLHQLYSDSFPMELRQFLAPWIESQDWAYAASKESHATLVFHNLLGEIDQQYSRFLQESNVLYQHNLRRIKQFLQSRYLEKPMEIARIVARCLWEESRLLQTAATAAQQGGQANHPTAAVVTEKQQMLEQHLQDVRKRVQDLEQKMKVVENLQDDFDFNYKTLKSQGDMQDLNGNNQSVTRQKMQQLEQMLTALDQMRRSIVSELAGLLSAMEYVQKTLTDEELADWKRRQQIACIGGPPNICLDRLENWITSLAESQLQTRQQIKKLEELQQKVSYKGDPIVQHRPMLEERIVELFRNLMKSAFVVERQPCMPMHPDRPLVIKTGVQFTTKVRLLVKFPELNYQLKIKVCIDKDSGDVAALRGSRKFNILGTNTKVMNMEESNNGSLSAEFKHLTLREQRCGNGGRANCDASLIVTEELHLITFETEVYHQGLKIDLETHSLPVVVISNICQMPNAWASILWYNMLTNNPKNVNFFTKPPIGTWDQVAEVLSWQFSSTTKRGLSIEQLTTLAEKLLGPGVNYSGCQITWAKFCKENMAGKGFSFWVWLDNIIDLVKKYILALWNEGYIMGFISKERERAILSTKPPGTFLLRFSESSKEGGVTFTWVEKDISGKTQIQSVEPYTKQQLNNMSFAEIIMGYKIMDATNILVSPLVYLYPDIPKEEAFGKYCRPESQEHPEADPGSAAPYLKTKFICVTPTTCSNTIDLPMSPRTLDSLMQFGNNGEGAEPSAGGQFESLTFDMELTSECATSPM
Experimental: as §1
Western blot—EPC2 ALI cells and primary esophageal cells were lysed following stimulation, using a protein extraction reagent (10% Glycerol, 20 mM Tris HCl pH7, 137 mM NaCl, 2 mM EDTA, 1% NP-40 in H2O) with Halt™ protease inhibitor cocktail (Thermo Fisher Scientific Incorporated; Rockford, IL, USA) and PhosSTOP phosphatase inhibitor cocktail tablet (Roche Diagnostics; Mannheim, Germany). […] of protein extract were separated on a 4%-12% Bis-Tris gel and transferred to a nitrocellulose membrane (Life Technologies; Carlsbad, CA). […]

[3] = test system: EPC2-ALI cells; assay: qPCR mRNA expression of EoE proliferation and inflammatory genes in EPC2-ALI; assay type: cell-based, human; details: in the presence of SD-36
Experimental: as §1
Quantitative PCR—RNA was extracted from EPC2-ALI cells by using the Quick-RNA Microprep Kit (Zymo Research Corporation) according to the manufacturer's protocol. Purified RNA (500 ng) was DNase treated and reverse transcribed to cDNA by using Superscript II RNase H Reverse Transcriptase (Thermo Fisher Scientific, Rockford, Ill), according to the manufacturer's instructions. cDNA for ANO1, CAPN14, CCL26, TP63, SFRP1, STAT3 and hypoxanthine phosphoribosyltransferase (HPRT) was quantified by using real-time PCR with the IQ SYBR Green Supermix (Bio-Rad Laboratories, Hercules, Calif) with the CFX96 Touch Real-Time PCR Detection System (Bio-Rad Laboratories). Quantitative PCR (qPCR) analyses were performed by using Bio-Rad CFX Manager Software (version 3.1; Bio-Rad Laboratories), and the results were normalized with HPRT amplified from the same cDNA mix and expressed as fold induction (2^-(ΔΔCT). Primers used for amplification were: […]

[4] = biological target: T2, IL4Rα chain (Homo sapiens, UniProt P24394); details: adults with active EoE, weekly subcutaneous injections; cited from earlier work
T2 construct: adults with active EoE who received weekly subcutaneous injections of dupilumab; host or cells: human patients (in vivo)

[5] = biological target: T3, IL-13 (Homo sapiens, UniProt P35225); details: cited from earlier work
T3 construct: Treatment of adult EoE patients with RPC4046, a recombinant humanized monoclonal antibody against IL-13 improves histologic and endoscopic outcomes; host or cells: human patients (in vivo)
T3 sequence (P35225 25-146): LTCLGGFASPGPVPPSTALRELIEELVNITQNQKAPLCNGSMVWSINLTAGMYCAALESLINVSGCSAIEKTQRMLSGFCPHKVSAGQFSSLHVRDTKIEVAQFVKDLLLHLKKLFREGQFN

Molecule: NC(=O)CC[C@H](NC(=O)[C@@H]1CC[C@@H]2CCN(C(=O)CCCCCC#Cc3cccc4c3CN(C3CCC(=O)NC3=O)C4=O)C[C@H](NC(=O)c3cc4cc(C(F)(F)P(=O)(O)O)ccc4[nH]3)C(=O)N21)C(=O)NC(c1ccccc1)c1ccccc1 (stereo partly drawn) [SD-36]
- IL-13-induced increase in EPC2-ALI Ki-67+ cells ([1]; SD-36 10 uM, IL-13 100 ng/mL, 48 hours): attenuated
- IL-13 induced phosphorylation of STAT3 Y705 and Y727 residues ([2]; IL-13 100 ng/mL): total loss
- degradation of STAT3 (total STAT3 protein) ([2]; at steady state and following IL-13-stimulation (100 ng/mL)): led to degradation of STAT3
- IL-13-induced mRNA expression of ANO1 [3]: abolished
- IL-13-induced mRNA expression of TP63 [3]: abolished
- IL-13 induction of canonical EoE inflammatory genes (CCL26, SLC9A3, CAPN14) mRNA [3]: not significantly inhibited

Molecule: O=S(=O)(NC1CCNCC1)c1cc(S(=O)(=O)c2ccccc2)ccc1C(F)(F)F [SFRP1inh]
- Ki67+ EPC2-ALI cells under IL-13-stimulation [1]: increase
- Ki67+ EPC2-ALI cells, treatment alone [1]: increase

Molecule: dupilumab: fully human IgG4 monoclonal antibody that binds the IL4Rα chain and blocks both IL-4 and IL-13 signaling
- esophageal distensibility [4]: increased
- histologic and endoscopic severity scores [4]: decreased
- peak esophageal eosinophil count [4]: reduced

B1: RPC4046: recombinant humanized monoclonal antibody against IL-13 (antibody, chains of the INN, looked up, V domains shown)
VH: EVTLRESGPGLVKPTQTLTLTCTLYGFSLSTSDMGVDWIRQPPGKGLEWLAHIWWDDVKRYNPALKSRLTISKDTSKNQVVLKLTSVDPVDTATYYCARTVSSGYIYYAMDYWGQGTLVTVSS
VL: DIQMTQSPSSLSASVGDRVTISCRASQDIRNYLNWYQQKPGKAPKLLIFYTSKLHSGVPSRFSGSGSGTDYTLTISSLQPEDIATYYCQQGNTLPLTFGGGTKVEIK
- endoscopic, histologic and clinical improvement in long-term extension ([5]; 52-week open-label LTE study, 360 mg/week): sustained endoscopic, histologic and clinical improvement
- histologic and endoscopic outcomes ([5]; adult EoE patients): improves

B2: rSFRP1: recombinant secreted frizzled-related protein 1, used as pharmacologic agonist (protein, UniProt Q8N474 32-314, looked up)
Secreted frizzled-related …: SEYDYVSFQSDIGPYQSGRFYTKPPQCVDIPADLRLCHNVGYKKMVLPNLLEHETMAEVKQQASSWVPLLNKNCHAGTQVFLCSLFAPVCLDRPIYPCRWLCEAVRDSCEPVMQFFGFYWPEMLKCDKFPEGDVCIAMTPPNATEASKPQGTTVCPPCDNELKSEAIIEHLCASEFALRMKIKEVKKENGDKKIVPKKKKPLKLGPIKKKDLKKLVLYLKNGADCPCHQLDNLSHHFLIMGRKVKSQYLLTAIHKWDKKNKEFKNFMKKMKNHECPTFQSVFK
- Ki67+ EPC2-ALI cells under IL-13-stimulation [1]: decrease
- Ki67+ EPC2-ALI cells, treatment alone [1]: sufficient to inhibit esophageal epithelial proliferation
